The source of these data is the NIST ThermoML archive (doi:10.1016/j.jct.2006.06.002).

Numbers after ± are expanded uncertainties.

The nature of this data set: refractive index (Na D-line) (dimensionless). Particulars: 101.33 kPa, Liquid, Standard Abbe refractometry.

`c1ccccc1` [benzene]: where the note is “303.15 K”, the refractive index is listed as 1.4954 ± 0.0009.
With `CO` [methanol], where the note is “293.15 K”, the refractive index amounted to 1.3288 ± 0.0009.
